Data from patent US10221163B2 (priority 2015, dated 2019).
Read-outs that look alike come from different tables or passages of the source.

Legend:
[1] = system: Pseudomonas aeruginosa efflux+ (MB9798), IMP-1; assay type: cell-based; set-up: Concentration of metallo-β-lactamase inhibitor which restores susceptibility of efflux + (MB9798) strain to imipenem: unit not given here; conditions: efflux+ MB9798; imipenem at 2 μg/mL; in the presence of a class A, C, D serine β-lactamase inhibitor closely related to relebactam
Method in brief: (§1)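 P. aeruginosa PAO1-derived IMP-1 strains, efflux+ MB9798 and efflux− MB9799, tested by standard microbroth MIC with imipenem and/or ceftazidime fixed, usually at CLSI breakpoint, plus fixed class A/C β-lactamase inhibitor against AmpC. Inhibitor titrated; concentration restoring susceptibility recorded; MB9798/MB9799 fold difference indicates efflux.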

VIM-1 = VIM-1 (Pseudomonas aeruginosa (strain ATCC 15692 / DSM 22644 / CIP 104116 / JCM 14847 / LMG 12228 / 1C / PRS 101 / PAO1), UniProt A0A0F7KYQ8); experiment: biochemical; conditions: CCF2-FA substrate, 30 pM enzyme, 2 hours at 25° C.
Method in brief: (§2)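 Inhibitor was mixed with the metallo-β-lactamase and CCF2-FA. After 2 hours at 25° C, fluorescence of the coumarin–fluorescein cephalosporin substrate was read. IC50 was calculated with a 4-parameter fit.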

IMP-1 = IMP-1 (Serratia marcescens, UniProt P52699); experiment: biochemical; assay type: biochemical; conditions: fluorescence assay, CCF2-FA substrate, 2 pM enzyme, 2 hours at 25° C.; read-out: IMP-1 IC50
Method in brief: as §2

NDM-1 = NDM-1 (Klebsiella pneumoniae, UniProt C7C422); experiment: biochemical; assay type: biochemical; conditions: fluorescence assay, CCF2-FA substrate, 1 pM enzyme, 2 hours at 25° C.; read-out: NDM-1 IC50
Method in brief: as §2

[2] = system: Pseudomonas aeruginosa MB9798 vs MB9799; conditions: fold difference between efflux+ (MB9798) and efflux− (MB9799) strains; imipenem at 2 μg/mL
Method in brief: as §1

[3] = system: Klebsiella pneumoniae expressing VIM-1 (IHMA599644); assay type: cell-based; conditions: VIM-1 strain IHMA599644, with imipenem 1 μg/ml, 95% inhibition of growth
Method in brief: (§3)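 Clinical strains grown overnight on blood agar at 35°C, colonies suspended in saline, diluted 1:100 into 1.1×CAMHB. Test compound titrated with imipenem at 1 μg/ml; incubated 22–24 h at 35°C, growth read by absorbance.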

[4] = system: Escherichia coli expressing NDM-1 (CLB30005, CLB30016); assay type: cell-based; conditions: NDM-1 strain, with imipenem 1 μg/ml, 95% inhibition of growth
Method in brief: as §3

[5] = system: Serratia marcescens expressing IMP-1 (CL5741); assay type: cell-based; conditions: IMP-1 strain CL5741, with imipenem 1 μg/ml, 95% inhibition of growth
Method in brief: as §3

[6] = system: Pseudomonas aeruginosa efflux− (MB9799), IMP-1; assay type: cell-based; conditions: efflux− MB9799; imipenem at 2 μg/mL; in the presence of a class A, C, D serine β-lactamase inhibitor closely related to relebactam
Method in brief: as §1

[7] = fluorescence assay, read-out: VIM-1 IC50

NDM-1, sequence (C7C422 whole entry, looked up, species assumed): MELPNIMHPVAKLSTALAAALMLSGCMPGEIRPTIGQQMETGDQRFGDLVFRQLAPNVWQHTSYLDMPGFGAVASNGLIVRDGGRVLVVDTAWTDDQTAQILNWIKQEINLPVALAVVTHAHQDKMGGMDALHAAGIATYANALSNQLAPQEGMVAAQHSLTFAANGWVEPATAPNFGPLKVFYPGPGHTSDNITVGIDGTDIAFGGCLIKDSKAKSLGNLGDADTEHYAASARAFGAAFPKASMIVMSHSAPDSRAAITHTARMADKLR
IMP-1, sequence (P52699 whole entry, looked up, species assumed): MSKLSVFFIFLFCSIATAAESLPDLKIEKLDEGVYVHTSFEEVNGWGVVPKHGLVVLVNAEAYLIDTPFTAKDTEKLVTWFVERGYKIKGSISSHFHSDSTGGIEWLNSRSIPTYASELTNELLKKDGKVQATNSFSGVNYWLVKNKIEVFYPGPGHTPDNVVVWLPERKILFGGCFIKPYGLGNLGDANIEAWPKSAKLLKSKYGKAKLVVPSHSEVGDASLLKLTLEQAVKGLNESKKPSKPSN

Structure (SMILES) | Concentration of metallo-β-lactamase inhibitor which restores susceptibility of efflux + (MB9798) strain to imipenem [1] | IC50 (VIM-1; [7]) [nM] | IC50 (IMP-1) [nM] | IC50 (NDM-1) [nM] | Efflux ratio [2] | Klebsiella pneumoniae MITC95 [3] [µM] | Escherichia coli MITC95 [4] [µM] | Serratia marcescens MITC95 [5] [µM] | Concentration of metallo-β-lactamase inhibitor which restores susceptibility of efflux − (MB9799) strain to imipenem [6] | IC50 (VIM-1; VIM-1 IC50, fluorescence assay) [nM]
NCCNc1cc(-c2ccc(S(=O)(=O)N[C@@H]3CCNC3)c(S(N)(=O)=O)c2-c2nn[nH]n2)ccn1 [Example 458, (R)-4-(2-((2-aminoethyl)amino)pyridin-4-yl)-N1-(pyrrolidin-3-yl)-3-(2H-tetrazol-5-yl)benzene-1,2-disulfonamide] | 3.125 | 0.132 | 3.77 | 0.532 | 4.00 | 1.563 | 0.7813 | 1.563 | 0.7813 | –
NCCNc1ncccc1-c1ccc(S(=O)(=O)N[C@@H]2CCNC2)c(S(N)(=O)=O)c1-c1nn[nH]n1 [Example 459, (R)-4-(2-((2-Aminoethyl)amino)pyridin-3-yl)-N1-(pyrrolidin-3-yl)-3-(2H-tetrazol-5-yl)benzene-1,2-disulfonamide] | 3.125 | 0.172 | 12.5 | 1.17 | 2.00 | 1.563 | 0.3906 | 1.563 | 1.563 | –
C[C@H](CN)NS(=O)(=O)c1ccc(-c2cccnc2NCCN)c(-c2nn[nH]n2)c1S(N)(=O)=O [Example 460, (R)-4-(2-((2-aminoethyl)amino)pyridin-3 yl)-N1-(1-aminopropan-2-yl)-3-(2H-tetrazol-5-yl)benzene-1,2-disulfonamide] | 3.125 | 0.148 | 4.63 | 0.603 | 2.00 | 1.563 | 0.7813 | 1.563 | 1.563 | –
NCCNS(=O)(=O)c1ccc(-c2ccnc(CN)c2)c(-c2nn[nH]n2)c1S(N)(=O)=O [Example 461, N1-(2-Aminoethyl)-4-(2-(aminomethyl)pyridin-4-yl)-3-(2H-tetrazol-5-yl)benzene-1,2-disulfonamide] | 12.5 | 4.77 | 50.4 | 42.1 | 4.00 | 6.25 | 1.563 | 3.125 | 3.125 | –
NCc1nc(-c2cccc(-c3ccc(S(=O)(=O)N[C@H]4CNC[C@H]4N)c(S(N)(=O)=O)c3-c3nn[nH]n3)c2)c[nH]1 [Example 462] | 1.563 | – | 1.29 | 0.0954 | 2.00 | 1.563 | 1.563 | 1.563 | 0.7813 | 0.227
NCc1nc2cc(-c3ccc(S(=O)(=O)NC[C@H](O)CN)c(S(N)(=O)=O)c3-c3nn[nH]n3)ccc2s1 [Example 463, (R)—N1-(3-amino-2-hydroxypropyl)-4-(2-(aminomethyl)benzo[d]thiazol-5-yl)-3-(2H-tetrazol-5-yl)benzene-1,2-disulfonamide] | 0.7813 | 0.091 | 0.325 | 0.145 | 1.00 | 1.563 | 0.7813 | 0.7813 | 0.7813 | –
NCc1nc2cc(-c3ccc(S(=O)(=O)NC[C@H](O)CN)c(S(N)(=O)=O)c3-c3nn[nH]n3)ccc2[nH]1 [Example 464, (R)—N1-(3-amino-2-hydroxypropyl)-4-(2-(aminomethyl)-1H-benzo[d]imidazole-5-yl)-3-(2H-tetrazol-5-yl)benzene-1,2-disulfonamide] | 0.7813 | 0.198 | 1.84 | 0.274 | 1.00 | 1.563 | 0.7813 | 1.563 | 0.7813 | –
NCc1nc2cc(-c3ccc(S(=O)(=O)NC[C@@H](O)CN)c(S(N)(=O)=O)c3-c3nn[nH]n3)ccc2[nH]1 [Example 465] | 0.7813 | 0.133 | 1.15 | 0.223 | 1.00 | 1.563 | 0.7813 | 1.563 | 0.7813 | –
NCCNS(=O)(=O)c1ccc(-c2ccc3[nH]c(CN)nc3c2)c(-c2nn[nH]n2)c1S(N)(=O)=O [Example 466, N1-(2-aminoethyl)-4-(2-(aminomethyl)-1H-benzo[d]imidazol-5-yl)-3-(2H-tetrazol-5-yl)benzene-1,2-disulfonamide] | 0.7813 | 0.138 | 0.967 | 0.359 | 1.00 | 1.563 | 0.7813 | 1.563 | 0.7813 | –
Cc1cc(-c2ccc(S(=O)(=O)NC[C@@H](O)CN)c(S(N)(=O)=O)c2-c2nn[nH]n2)cnc1N [Example 468, (S)-N1-(3-amino-2-hydroxypropyl)-4-(6-amino-5-methylpyridin-3-yl)-3-(2H-tetrazol-5-yl)benzene-1,2-disulfonamide] | 1.563 | 0.0869 | 0.569 | 0.133 | 2.00 | 3.125 | 0.3906 | 0.7813 | 0.7813 | –
NC[C@H](O)CNS(=O)(=O)c1ccc(-c2cnc(N)c(F)c2)c(-c2nn[nH]n2)c1S(N)(=O)=O [Example 469, (S)-N1-(3-amino-2-hydroxypropyl)-4-(6-amino-5-fluoropyridin-3-yl)-3-(2H-tetrazol-5-yl)benzene-1,2-disulfonamide] | 0.7813 | – | 0.554 | 0.153 | 1.00 | 3.125 | 1.563 | 3.125 | 0.7813 | 0.0868
NS(=O)(=O)c1c(S(=O)(=O)N[C@@H]2CCNC2)ccc(-c2cccc(Nc3nc(CO)cs3)c2)c1-c1nn[nH]n1 [Example 470, (R)-3′-((4-(hydroxymethyl)thiazol-2-yl)amino)-N4-(pyrrolidin-3-yl)-2-(2H-tetrazol-5-yl)-[1,1′-biphenyl]-3,4-disulfonamide] | 1.563 | 0.11 | 0.134 | 0.0496 | 2.00 | 3.125 | 0.7813 | 1.563 | 0.7813 | –
